Experimental data published in ChEMBL document CHEMBL4017463, “Practical application of 3-substituted-2,6-difluoropyridines in drug discovery: Facile synthesis of novel protein kinase C theta inhibitors” (Bioorg Med Chem Lett, 2017).

Target: Protein kinase C theta type (Homo sapiens, UniProt Q04759)
Experiment: Inhibition of N-terminal FLAG-tagged PKCtheta (unknown origin) expressed in baculovirus expression system using fluorescein-PKC as substrate preincubated for 5 mins followed by substrate addition measured after 60 mins in presence of ATP by Lathascreen TR-FRET assay

Chain of Protein kinase C theta type (Q04759 whole entry): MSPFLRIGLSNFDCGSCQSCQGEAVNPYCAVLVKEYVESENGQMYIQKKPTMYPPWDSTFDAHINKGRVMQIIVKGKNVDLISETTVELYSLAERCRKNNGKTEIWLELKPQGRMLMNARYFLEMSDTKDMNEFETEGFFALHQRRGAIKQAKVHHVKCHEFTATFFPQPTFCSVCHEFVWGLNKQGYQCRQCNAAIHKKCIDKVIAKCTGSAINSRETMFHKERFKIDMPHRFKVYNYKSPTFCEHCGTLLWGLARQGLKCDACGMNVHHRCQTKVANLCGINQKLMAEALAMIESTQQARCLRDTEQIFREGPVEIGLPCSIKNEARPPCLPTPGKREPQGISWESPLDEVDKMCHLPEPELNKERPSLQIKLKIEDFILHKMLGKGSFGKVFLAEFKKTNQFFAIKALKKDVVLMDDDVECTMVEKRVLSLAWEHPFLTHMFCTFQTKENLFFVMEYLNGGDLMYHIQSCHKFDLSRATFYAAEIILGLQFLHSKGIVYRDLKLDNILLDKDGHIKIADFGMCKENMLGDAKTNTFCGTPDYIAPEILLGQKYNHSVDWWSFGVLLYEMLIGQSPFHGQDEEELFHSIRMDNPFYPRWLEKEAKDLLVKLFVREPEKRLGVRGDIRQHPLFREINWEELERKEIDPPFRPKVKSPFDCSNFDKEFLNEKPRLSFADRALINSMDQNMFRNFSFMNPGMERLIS

Structure (SMILES)	IC50 [nM]
O=c1[nH]c2ncccc2n1-c1nc(N2CCCNCC2)ccc1Cl	18
CCOc1ccnc2[nH]c(=O)n(-c3nc(N4CCCNCC4)ccc3Cl)c12	0.086
O=c1[nH]c2ncccc2n1-c1nc(N2CCCC(C(O)C3CC3)C2)ccc1F (stereo unspecified)	> 1000
CN1CCCCOc2ccnc3[nH]c(=O)n(c23)-c2nc1ccc2Cl	0.87
CC(C)CC1CCCN1c1ccc(F)c(-n2c(=O)[nH]c3ncccc32)n1 (racemic)	250
CC(C)(C)OC(=O)N1CCN(c2ccc([N+](=O)[O-])c(-n3c(=O)[nH]c4ncccc43)n2)C(c2ccccc2)C1 (racemic)	0.18

The remaining lines, values ahead:

IC50 [nM]	Structure (SMILES)
100	O=c1[nH]c2ncccc2n1-c1nc(N2CCCNCC2)ccc1F
6.7	CN1CCCOc2ccnc3[nH]c(=O)n(c23)-c2nc1ccc2Cl
14	O=c1[nH]c2nccc3c2n1-c1nc(ccc1Cl)OCCCCO3
6.3	N#Cc1ccc(N2CCNCC2c2ccccc2)nc1-n1c(=O)[nH]c2ncccc21 (racemic)
33	COc1ccnc2[nH]c(=O)n(-c3nc(N4CCNC(c5ccccc5)C4)ccc3Cl)c12 (racemic)
